Data set [1] in a line: Binding affinity to Cdc25A C384S mutant assessed as protein labeling based detection of sulfenic acid modification at 20 uM in presence of 5 mM DTT by Western blot.
For data set [2], the system named is HeLa. Nature of the data set: Toxicity against human HeLa cells after 2 hrs by trypan blue exclusion method. Format: cell-based.
Data set [3] relates to HeLa. Nature of the data set: Binding affinity to sulfenic acid modified actin in human HeLa cells at 10 mM by Western blot. Format: cell-based. (A western blot detects proteins with antibodies after separation by electrophoresis.)
For data set [4], the target named is Glyceraldehyde-3-phosphate dehydrogenase (Homo sapiens) (UniProt P04406). Nature of the data set: Inhibition of DAz1-biotin binding to sulfenic acid modified GAPDH at 250 uM by Western blot.
Sequence of Glyceraldehyde-3-phosphate dehydrogenase (Homo sapiens) (P04406 2-335 limits assumed): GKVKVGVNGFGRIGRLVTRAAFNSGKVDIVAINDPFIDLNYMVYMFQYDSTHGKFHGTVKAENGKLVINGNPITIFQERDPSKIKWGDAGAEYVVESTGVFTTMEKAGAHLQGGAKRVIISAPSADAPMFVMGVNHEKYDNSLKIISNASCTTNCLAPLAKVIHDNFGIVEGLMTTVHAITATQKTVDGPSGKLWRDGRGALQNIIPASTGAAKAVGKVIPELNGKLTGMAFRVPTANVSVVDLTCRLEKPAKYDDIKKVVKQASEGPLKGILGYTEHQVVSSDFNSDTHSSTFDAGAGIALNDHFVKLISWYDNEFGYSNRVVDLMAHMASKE
The target is the same in data set [5]. The data set can be described thus: Binding affinity to sulfenic acid modified GAPDH in human HeLa cells at 10 mM by Western blot. It counts as cell-based.
Data set [6] has the same target. Nature of the data set: Binding affinity to sulfenic acid modified GAPDH by Western blot.
The target of data set [7] is T1, Peroxiredoxin-1 (Homo sapiens) (UniProt Q06830).
T1 sequence (whole entry): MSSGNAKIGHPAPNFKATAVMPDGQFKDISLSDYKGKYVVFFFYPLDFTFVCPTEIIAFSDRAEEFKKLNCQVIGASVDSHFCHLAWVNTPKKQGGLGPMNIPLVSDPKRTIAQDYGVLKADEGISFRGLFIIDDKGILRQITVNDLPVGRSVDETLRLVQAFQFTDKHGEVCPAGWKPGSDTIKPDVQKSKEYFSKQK
The data set can be described thus: Binding affinity to sulfenic acid modified peroxiredoxin human HeLa cells at 10 mM by Western blot. Format: cell-based.

Data set [8] is described as follows: Binding affinity to Cdc25A C384S mutant assessed as protein labeling based detection of sulfenic acid modification at 10 mM by Western blot.

Activity calls are given as the source filed them. No cut-off for these calls is given here.

Usually inhibition stands for the relative decrease from the control value, in per cent. A higher inhibition goes with a strong effect. `[N-]=[N+]=NCCCNC(=O)C1CC(=O)CC(=O)C1`: the result in data set [1] was inactive. Also, the Activity result with HeLa [2] is “Non-toxic”. The result (in the data set on HeLa [3]; in data set [5]; in data set [6]; in data set [7]; in data set [8]) was Active. Besides, the inhibition in data set [4] amounted to 90%.

For the origin of these results see ChEMBL document CHEMBL1154543, “Facile synthesis and biological evaluation of a cell-permeable probe to detect redox-regulated proteins” (Bioorg Med Chem Lett, 2009).
